Assay: Solubility in the solvent of a naphthacene compound with para-bonded aromatic substituents
Format: physicochemical
Conditions: solvent not specified (aromatic, halogen type or ether type solvent)

solubility: ≤ 0.1 wt %
Structure (SMILES): c1ccc(-c2ccc(-c3c4ccccc4c(-c4ccc(-c5ccccc5)cc4-c4ccccc4)c4cc5ccccc5cc34)c(-c3ccccc3)c2)cc1
